According to patent publication US10093683B2, “Factor XIa inhibitors” (Merck Sharp & Dohme Corp., priority 2014, dated 2018):
Like-named read-outs stand apart in the source and are kept apart here.

Biological target: human Factor XIa (Homo sapiens (Human), UniProt P03951)
Assay: Factor XIa Assay
Type: biochemical
Details: read-out: FXIa Ki
Description: The effectiveness of a compound of the present invention as an inhibitor of Coagulation Factor XIa can be determined using a relevant purified serine protease, and an appropriate synthetic substrate. The rate of hydrolysis of the chromogenic or fluorogenic substrate by the relevant serine protease was measured both in the absence and presence of compounds of the present invention. Assays were conducted at room temperature or at 37° C. […] A decrease in the rate of fluorescence change in the presence of inhibitor is indicative of enzyme inhibition. Such methods are known to one skilled in the art. The results of this assay are expressed as the inhibitory constant, Ki.
Factor XIa determinations were made in 50 mM HEPES buffer at pH 7.4 containing 150 mM NaCl, 5 mM CaCl2, and 0.1% PEG 8000 (polyethylene glycol; JT Baker or Fisher Scientific). Determinations were made using purified human Factor XIa at a final concentration of 40 pM (Sekisui Diagnostics) and he synthetic substrate, Z-Gly-Pro-Arg-AFC, TFA salt (Sigma #C0980) at a concentration of 100 μM.
Times required to achieve equilibration between enzyme and inhibitor were determined in control experiments. Initial velocities of product formation in the absence (Vo) or presence of inhibitor (Vi) were measured. Assuming competitive inhibition, and that unity is negligible compared Km/[S], [I]/e, and [I]/e (where [S], [I], and e respectively represent the total concentrations, of substrate, inhibitor and enzyme), the equilibrium constant (Ki) for dissociation of the inhibitor from the enzyme can be obtained from the dependence of Vo/Vi on [I] shown in the following equation.

[1] = purified human Factor XIa 40 pM, Z-Gly-Pro-Arg-AFC 100 μM, pH 7.4

Chain of human Factor XIa (P03951 388-625): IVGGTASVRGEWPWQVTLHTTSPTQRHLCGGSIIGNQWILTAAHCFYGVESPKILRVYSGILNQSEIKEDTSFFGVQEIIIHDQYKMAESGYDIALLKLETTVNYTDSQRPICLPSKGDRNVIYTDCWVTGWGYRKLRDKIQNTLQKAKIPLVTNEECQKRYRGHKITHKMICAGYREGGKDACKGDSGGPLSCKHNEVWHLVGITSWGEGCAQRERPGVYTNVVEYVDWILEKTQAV
Chain of human Factor XIa (P03951 19-387 partner): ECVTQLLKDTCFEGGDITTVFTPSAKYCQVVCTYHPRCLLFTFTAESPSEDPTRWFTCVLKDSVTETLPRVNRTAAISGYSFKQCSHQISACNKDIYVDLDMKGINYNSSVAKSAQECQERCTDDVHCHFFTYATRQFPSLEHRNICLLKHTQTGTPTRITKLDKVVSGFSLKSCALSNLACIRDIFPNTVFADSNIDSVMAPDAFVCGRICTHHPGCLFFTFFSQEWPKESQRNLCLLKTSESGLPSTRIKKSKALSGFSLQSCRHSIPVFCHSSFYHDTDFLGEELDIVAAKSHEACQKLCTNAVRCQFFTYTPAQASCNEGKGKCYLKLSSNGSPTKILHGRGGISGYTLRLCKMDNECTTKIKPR

SMILES | Ki [nM] | Ki [1] [nM]
COC(=O)Nc1ccc2[nH]c([C@@H](Cc3ccccc3)C(=O)N3CC[C@]4(C3)OC(=O)Nc3ccc(Cl)cc34)nc2c1 [Example 131d, methyl (2-((R)-1-((S)-6-chloro-2-oxo-1,2-dihydrospiro[benzo[d][1,3]oxazine-4,3′-pyrrolidin]-1′-yl)-1-oxo-3-phenylpropan-2-yl)-1H-benzo[d]imidazol-5-yl)carbamate] | – | 5000
COC(=O)Nc1ccc(C(=O)N[C@@](C)(Cc2ccccc2)C(=O)N2CCC3(C2)OC(=O)Nc2ccc(Cl)cc23)cc1 (stereo partly drawn) [Example 24, methyl (4-(((2S)-1-(6-chloro-2-oxo-1,2-dihydrospiro[benzo[d][1,3]oxazine-4,3′-pyrrolidin]-1′-yl)-2-methyl-1-oxo-3-phenylpropan-2-yl)carbamoyl)phenyl)carbamate] | – | ≥ 5000
O=C1Nc2ccc(Cl)cc2C2(CCN(C(=O)[C@H](Cc3ccccc3)NC(=O)c3ccc(-n4ccnc4)nc3)C2)O1 (stereo partly drawn) [Example 159] | 743 | –
COC(=O)Nc1ccc(C(=O)N[C@@H](Cc2ccc(NS(C)(=O)=O)cc2)C(=O)N2CCC[C@@]3(C2)OC(=O)Nc2ccc(Cl)cc23)cc1 [Example 46, methyl (4-(((S)-1-((R)-6-chloro-2-oxo-1,2-dihydrospiro[benzo[d][1,3]oxazine-4,3′-piperidin]-1′-yl)-3-(4-(methylsulfonamido)phenyl)-1-oxopropan-2-yl)carbamoyl)phenyl)carbamate] | – | 0.39
COC(=O)Nc1ccc(C(=O)N[C@@H](CC[S+](C)[O-])C(=O)N2CCC[C@@]3(C2)OC(=O)Nc2ccc(Cl)cc23)cc1 (stereo partly drawn) [Example 56, methyl (4-(((2S)-1-((R)-6-chloro-2-oxo-1,2-dihydrospiro[benzo[d][1,3]oxazine-4,3′-piperidin]-1′-yl)-4-(methylsulfinyl)-1-oxobutan-2-yl)carbamoyl)phenyl)carbamate] | – | 102
O=C1Nc2ccc(Cl)cc2C2(CCN(C(=O)[C@H](Cc3ccccc3)NC(=O)c3ccc4c(c3)C(=O)NC4)C2)O1 (stereo partly drawn) [Example 172] | 328 | –
O=C1Nc2ccc(Cl)cc2C2(CCN(C(=O)[C@H](Cc3ccccc3)NC(=O)c3ccc4cn[nH]c4c3)C2)O1 (stereo partly drawn) [Example 182] | 137 | –
COC(=O)Nc1ccc(C(=O)N[C@@H](CCNC(=O)OC2CCC2)C(=O)N2CCC[C@@]3(C2)OC(=O)Nc2ccc(Cl)cc23)cc1 [Example 109, methyl (4-(((S)-1-((R)-6-chloro-2-oxo-1,2-dihydrospiro[benzo[d][1,3]oxazine-4,3′-piperidin]-1′-yl)-4-((cyclobutoxycarbonyl)amino)-1-oxobutan-2-yl)carbamoyl)phenyl)carbamate] | – | 48.3
O=C1Nc2ccc(Cl)cc2C2(CCN(C(=O)[C@H](Cc3ccccc3)NC(=O)c3cc(O)ncn3)C2)O1 (stereo partly drawn) [Example 177] | 559 | –
CC(=O)Nc1cc(C(=O)N[C@@H](Cc2ccccc2)C(=O)N2CCC3(C2)OC(=O)Nc2ccc(Cl)cc23)ccn1 (stereo partly drawn) [Example 168] | 576 | –
COC(=O)Nc1ccc(C(=O)N[C@@H](CC2CCC2)C(=O)N2CCC[C@@]3(C2)OC(=O)Nc2ccc(Cl)cc23)cc1 [Example 71, methyl (4-(((S)-1-((R)-6-chloro-2-oxo-1,2-dihydrospiro[benzo[d][1,3]oxazine-4,3′-piperidin]-1′-yl)-3-cyclobutyl-1-oxopropan-2-yl)carbamoyl)phenyl)carbamate] | – | 50.9
O=C1Nc2ccc(Cl)cc2C2(CCN(C(=O)[C@H](Cc3ccccc3)NC(=O)c3ccc(O)c(F)c3)C2)O1 (stereo partly drawn) [Example 178, N-((2S)-1-(6-chloro-2-oxo-1,2-dihydrospiro[benzo[d][1,3]oxazine-4,3′-pyrrolidin]-1′-yl)-1-oxo-3-phenylpropan-2-yl)-3-fluoro-4-hydroxybenzamide] | 251 | –
COC(=O)Nc1ccc(-c2c[nH]c([C@H](Cc3ccccc3)C(=O)N3CC[C@@]4(C3)OC(=O)Nc3ccc(Cl)cc34)n2)cc1 [Example 122d, methyl (4-(2-((S)-1-((R)-6-chloro-2-oxo-1,2-dihydrospiro[benzo[d][1,3]oxazine-4,3′-pyrrolidin]-1′-yl)-1-oxo-3-phenylpropan-2-yl)-1H-imidazol-4-yl)phenyl)carbamate] | – | 364
COC(=O)Nc1ccc(C(=O)N[C@@H](CC(F)(F)F)C(=O)N2CCC[C@@]3(C2)OC(=O)Nc2ccc(Cl)cc23)cc1 [Example 64, methyl (4-(((S)-1-((R)-6-chloro-2-oxo-1,2-dihydrospiro[benzo[d][1,3]oxazine-4,3′-piperidin]-1′-yl)-4,4,4-trifluoro-1-oxobutan-2-yl)carbamoyl)phenyl)carbamate] | – | 1930
C[C@@H]1NC(=O)O[C@H]1c1cccc(C(=O)N[C@@H](Cc2ccccc2)C(=O)N2CCC3(C2)OC(=O)Nc2ccc(Cl)cc23)c1 (stereo partly drawn) [Example 173, N-((2S)-1-(6-chloro-2-oxo-1,2-dihydrospiro[benzo[d][1,3]oxazine-4,3′-pyrrolidin]-1′-yl)-1-oxo-3-phenylpropan-2-yl)-3-((4S,5S)-4-methyl-2-oxooxazolidin-5-yl)benzamide] | 385 | –
COC(=O)Nc1ccc(C(=O)N[C@@H](Cc2c[nH]c3ccccc23)C(=O)N2CCC[C@@]3(C2)OC(=O)Nc2ccc(Cl)c(F)c23)cc1 [Example 70, methyl (4-(((S)-1-((R)-6-chloro-5-fluoro-2-oxo-1,2-dihydrospiro[benzo[d][1,3]oxazine-4,3′-piperidin]-1′-yl)-3-(1H-indol-3-yl)-1-oxopropan-2-yl)carbamoyl)phenyl)carbamate] | – | 20.7
COC(=O)Nc1ccc(C(=O)N[C@@H](Cc2ccccc2)C(=O)N2CCC[C@@]3(C2)OC(=O)Nc2cc(F)c(Cl)c(F)c23)cc1 [Example 11, methyl (4-(((S)-1-((R)-6-chloro-5,7-difluoro-2-oxo-1,2-dihydrospiro[benzo[d][1,3]oxazine-4,3′-piperidin]-1′-yl)-1-oxo-3-phenylpropan-2-yl)carbamoyl)phenyl)carbamate] | – | 51

Now from value to compound:

Ki [nM] | Ki [1] [nM] | SMILES
0.22 | – | O=C1Nc2ccc(Cl)c(F)c2[C@@]2(CCCN(C(=O)[C@H](CC3CC3)NC(=O)c3ccc4[nH]c(=O)cc(O)c4c3)C2)O1 [Example 210]
– | 5000 | O=C(NCc1cccc(C(=O)O)c1)N[C@@H](Cc1ccccc1)C(=O)N1CCC2(C1)OC(=O)Nc1ccc(Cl)cc12 (stereo partly drawn) [Example 279, 3-((3-((2S)-1-(6-chloro-2-oxo-1,2-dihydrospiro[benzo[d][1,3]oxazine-4,3′-pyrrolidin]-1′-yl)-1-oxo-3-phenylpropan-2-yl)ureido)methyl)benzoic acid]
2310 | – | NC(=O)c1n[nH]c2cc(C(=O)N[C@@H](Cc3ccccc3)C(=O)N3CC[C@@]4(C3)OC(=O)Nc3ccc(Cl)cc34)ccc12 [Example 219]
– | 10000 | O=C1Nc2ccc(Cl)cc2[C@@]2(CCCN(C(=O)[C@H](Cc3ccccc3)Nc3ccc(-c4cccc(C(=O)O)c4)cn3)C2)O1 [Example 297, 3-(6-(((S)-1-((R)-6-chloro-2-oxo-1,2-dihydrospiro[benzo[d][1,3]oxazine-4,3′-piperidin]-1′-yl)-1-oxo-3-phenylpropan-2-yl)amino)pyridin-3-yl)benzoic acid]
8750 | – | COC(=O)Nc1ccc(CN[C@@H](Cc2ccccc2)C(=O)N2CC[C@@]3(C2)OC(=O)Nc2ccc(Cl)cc23)cc1 [Example 222, Methyl (4-((((S)-1-((R)-6-chloro-2-oxo-1,2-dihydrospiro[benzo[d][1,3]oxazine-4,3′-pyrrolidin]-1′-yl)-1-oxo-3-phenylpropan-2-yl)amino)methyl)phenyl)carbamate]
– | 4620 | Nc1nc2ccc(C(=O)N3C[C@H](F)C[C@H]3C(=O)N3CC[C@@]4(C3)OC(=O)Nc3ccc(Cl)cc34)cc2s1 [Example 291, (R)-1′-((2S,4R)-1-(2-aminobenzo[d]thiazole-6-carbonyl)-4-fluoropyrrolidine-2-carbonyl)-6-chlorospiro[benzo[d][1,3]oxazine-4,3′-pyrrolidin]-2(1H)-one]
518 | – | O=C1Nc2ccc(Cl)cc2[C@@]2(CCCN(C(=O)[C@H](Cc3ccccc3)NC(=O)c3ccc4c(O)cc(=O)[nH]c4c3)C2)O1 [Example 221]
104 | – | COC(=O)NC12CC(C(=O)N[C@@H](Cc3ccccc3)C(=O)N3CCC[C@@]4(C3)OC(=O)Nc3ccc(Cl)c(F)c34)(C1)C2 [Example 238]
– | ≥ 5000 | O=C1COc2ccc(S(=O)(=O)N[C@@H](Cc3ccccc3)C(=O)N3CCC4(C3)OC(=O)Nc3ccc(Cl)cc34)cc2N1 (stereo partly drawn) [Example 282, N-((2S)-1-(6-chloro-2-oxo-1,2-dihydrospiro[benzo[d][1,3]oxazine-4,3′-pyrrolidin]-1′-yl)-1-oxo-3-phenylpropan-2-yl)-3-oxo-3,4-dihydro-2H-benzo[b][1,4]oxazine-6-sulfonamide]
8750 | – | COC(=O)Nc1ccc(C(N[C@@H](Cc2ccccc2)C(=O)N2CCC3(C2)OC(=O)Nc2ccc(Cl)cc23)C(F)(F)F)cc1 (stereo partly drawn) [Example 223, Methyl (4-(1-(((S)-1-((R)-6-chloro-2-oxo-1,2-dihydrospiro[benzo[d][1,3]oxazine-4,3′-pyrrolidin]-1′-yl)-1-oxo-3-phenylpropan-2-yl)amino)-2,2,2-trifluoroethyl)phenyl)carbamate]
